Data: PMC8596843, “Platinum Cyclooctadiene Complexes with Activity against Gram‐positive Bacteria” (Chemmedchem, 2021)

Columns and labels:
[1] = test system: Staphylococcus aureus ATCC 43300 (MRSA); assay: microbe, parasite or virus in culture; type: cell-based
Method: (§1) All compounds submitted to CO‐ADD are initially screened against five bacterial strains (Staphylococcus aureus (MRSA), E. coli, Klebsiella pneumoniae, Pseudomonas aeruginosa, Acinetobacter baumannii) and two fungal strains (Candida albicans, Cryptococcus neoformans) at a single concentration (32 μg/mL or 20 μM) performed as a high‐throughput primary screening.[[11], [17a]] Any compounds that show significant growth inhibition against any of the tested strains at this step are then evaluated in a dose‐response assay against these same strains. […]
(§2) Smiles: C1C=CCCC(=CC1)C1=CCCC=CCC1.C[Pt]C.C[Pt]C […]
(§3) ATCC strains were sourced from the American Type Culture Collection and NRS strains from NARSA (Network on Antimicrobial Resistance in Staphylococcus aureus) via BEI Resources (www.beiresources.org), with clinical MSSA and MRSA isolates from Prof Graeme Nimmo, Queensland […]
(§4) Health Central Pathology. […]
(§5) Antibacterial minimum inhibitory concentration (MIC) assay
(§6) Compound Assay Plate Preparation: Compounds were dissolved in DMSO at 10mM (CO-ADD screening) or 4 mM (follow up screening) and were plated in a 2-fold dose response from 20 to 0.156 µM or 200 to 0.006 µM respectively, with a maximum of 0.5% or 1% DMSO, final in the assay […]
(§7) plated in a 2-fold dose response from 200 to 0.006 µM, with a maximum of 1 % DMSO, final in the assay concentration. (in-house screening)
(§8) For all the bacterial assays, each strain was cultured in Cation-adjusted Mueller Hinton broth (CAMHB; Bacto Laboratories 212322) at 37 °C overnight. A sample of each culture was then diluted 40-fold in fresh CAMHB and incubated at 37 °C for 1.5–3 h. The resultant mid-log phase cultures were diluted with CAMHB (CFU mL−1 measured by OD600), then added to each well of the compound-containing plates (384-well non-binding surface (NBS) plates; Corning CLS3640), giving a cell density of 5 × 10^5 CFU mL−1 and a total volume of 50 μL. Plates were covered and incubated at 37 °C for 18 h without shaking. Inhibition of bacterial growth was determined measuring absorbance at 600 nm (OD600), using media only as negative control and bacteria without inhibitors as positive control. MIC values were determined as the lowest concentration at which the growth was inhibited at ≥80%. Colistin sulfate (Sigma C4461) and vancomycin HCl (Sigma 861987) were used as internal controls on each plate for Gram-negative and Gram-positive bacteria, respectively. […]

[2] = test system: Acinetobacter baumannii ATCC 19606; assay: Antibacterial MIC assay; type: cell-based; settings: CO‐ADD screening
Method: as §1, §2, §3, §4, §5, §6, §7, §8

[3] = test system: Escherichia coli ATCC 25922; assay: Antibacterial MIC assay; type: cell-based; settings: CO‐ADD screening
Method: as §1, §2, §3, §4, §5, §6, §7, §8

[4] = test system: Pseudomonas aeruginosa ATCC 27853; assay: Antibacterial MIC assay; type: cell-based; settings: CO‐ADD screening
Method: as §1, §2, §3, §4, §5, §6, §7, §8

[5] = test system: Klebsiella pneumoniae ATCC 700603 (ESBL SHV‐18)
Method: as §1, §2, §3, §4, §5, §6, §7, §8

[6] = test system: Candida albicans ATCC 90028; assay: Antifungal MIC (CO-ADD screening); type: cell-based
Method: (§9) InChIKey: PHIWIZAHOBWKFJ-HPCBIOCFSA-N
(§10) Health Central Pathology. Candida albicans (ATCC 90028, NCCLS 11), Cryptococcus neoformans
as §5
(§11) concentration. (in-house screening)
(§12) Bacto Laboratories 212322) at 37 °C overnight.

[7] = test system: Cryptococcus neoformans H99 ATCC 208821; assay: Antifungal MIC (CO-ADD screening); type: cell-based
Method: as §9, §10, §5, §11, §12

[8] = test system: HEK-293 ATCC CRL-1573 human embryonic kidney cells; type: cell-based
Method: As part of the CO‐ADD screening, all compounds that show any activity against a microbial strain are evaluated for their cytotoxicity against human embryonic kidney cells (HEK‐293) and for haemolysis against human red blood cells. None of the compounds tested for cytotoxicity (Pt1‐9 and Pd1) caused any significant cell death up to concentrations of 100 μM. […] We have also observed higher IC50 values for the methylated complexes Pt3 and Pt4 against HeLa cells in previous work.[16] […]
(§13) inhibitors as positive control.
(§14) Tamoxifen (Sigma T5648) was used
(§15) as internal control on each plate.
in a Neubauer haemocytometer. […]

human red blood cells = assay: Haemolysis assay; type: cell-based
Method: As part of the CO‐ADD screening, all compounds that show any activity against a microbial strain are evaluated for their cytotoxicity against human embryonic kidney cells (HEK‐293) and for haemolysis against human red blood cells. None of the compounds tested for cytotoxicity (Pt1‐9 and Pd1) caused any significant cell death up to concentrations of 100 μM. […] We have also observed higher IC50 values for the methylated complexes Pt3 and Pt4 against HeLa cells in previous work.[16]
(§16) The resultant mid-log phase cultures were diluted
(§17) Gram-negative and Gram-positive bacteria, respectively.
(§18) final concentration range of 0.8 – 100 µM.
as §13, §14, §15
in a Neubauer haemocytometer.
incubated for 1 h at 37 °C, without shaking.
HC10 and HC50 (concentration at which 10%
for top, bottom and slope using Prism 8. […]

[9] = test system: Staphylococcus aureus ATCC 25923, MSSA; assay: Antibacterial MIC assay, Gram-positive panel; type: cell-based; settings: Table S1 panel; n=4
From the text: (§19) Bis(dimethyl-η4)-((1Z,1'E,5Z,5'E)-(1,1'-bi(cyclooctadiene))diplatinum(II) (Pt14) Smiles: C1C=CCCC(=CC1)C1=CCCC=CCC1.C[Pt]C.C[Pt]C
as §9
(§20) Link to selected data that was repeated to approve the identity of the compounds: https://dx.doi.org/10.14272/PHIWIZAHOBWKFJ-HPCBIOCFSA-N.1
as §3, §4, §5, §6, §7, §8

[10] = test system: Staphylococcus aureus VRS 1, VRSA (VanA); assay: Antibacterial MIC assay, Gram-positive panel; type: cell-based; settings: Table S1 panel; n=4
From the text: as §19, §9, §20, §3, §4, §5, §6, §7, §8

[11] = test system: Bacillus subtilis ATCC 6051, type strain; assay: Antibacterial MIC assay, Gram-positive panel; type: cell-based; settings: Table S1 panel; n=2
Method: as §2, §3, §4, §5, §6, §7, §8

[12] = test system: Enterococcus faecalis ATCC 29212, control strain; assay: Antibacterial MIC assay, Gram-positive panel; type: cell-based; settings: Table S1 panel; n=4
Method: as §2, §3, §4, §5, §6, §7, §8

[13] = test system: Enterococcus faecium ATCC 35667, type strain; assay: Antibacterial MIC assay, Gram-positive panel; type: cell-based; settings: Table S1 panel; n=4
Method: as §2, §3, §4, §5, §6, §7, §8

[14] = test system: Enterococcus faecium ATCC 51559, MDR, VRE (VanA); assay: Antibacterial MIC assay, Gram-positive panel; type: cell-based; settings: Table S1 panel; n=2
Method: as §2, §3, §4, §5, §6, §7, §8

[15] = test system: Enterococcus faecium Clinical Isolate, VRE (VanA); assay: Antibacterial MIC assay, Gram-positive panel; type: cell-based; settings: Table S1 panel; n=4
Method: as §2, §3, §4, §5, §6, §7, §8

[16] = test system: Staphylococcus aureus NRS 17, GISA; assay: Antibacterial MIC assay, Gram-positive panel; type: cell-based; settings: Table S1 panel; n=2
Method: as §2, §3, §4, §5, §6, §7, §8

[17] = test system: Staphylococcus epidermidis ATCC 14990, type strain; assay: Antibacterial MIC assay, Gram-positive panel; type: cell-based; settings: Table S1 panel; n=4
Method: as §2, §3, §4, §5, §6, §7, §8

[18] = test system: Staphylococcus epidermidis NRS 60, VISE; assay: Antibacterial MIC assay, Gram-positive panel; type: cell-based; settings: Table S1 panel; n=4
Method: as §2, §3, §4, §5, §6, §7, §8

[19] = test system: E. coli lpxC (non‐efficient lipid A production mutant); assay: MIC against E. coli membrane mutants; type: cell-based, Escherichia coli; settings: Table S2
Method: as §5, §11, §12, §16, §17, §18
(§21) inhibitors as positive control. […]

[20] = test system: B. subtilis ATCC 6051 type strain; assay: MIC in the presence of human serum (serum reversal); type: cell-based, Bacillus subtilis; settings: 10% serum
From the text: (§22) To obtain some initial insight into the apparent disparity between in vitro and in vivo results, we repeated the MIC experiments against four selected Gram‐positive strains in the presence of 10 % or 50 % human serum (Table S3). Pt1 and Pt2 maintained some antibacterial activity against B. subtilis in the presence of 10 % serum, but a complete loss of activity was observed against MRSA and GISA (50 % serum), and VRE (10 % serum). […] Systemic administration is therefore unlikely to be a suitable administration route for this class of compounds unless an alternative formulation that can prevent serum binding (e. g. by lipid or nanoparticle encapsulation) can be found. […] Further in vivo studies should therefore focus on more suitable disease models. […]
as §5, §11, §12, §16, §17, §18, §21

[21] = test system: S. aureus ATCC 43300 MRSA; assay: as above; type: cell-based, Staphylococcus aureus; settings: 50% serum
From the text: as §22, §5, §11, §12, §16, §17, §18, §21

S. aureus NRS 17 GISA = assay: as above; type: cell-based, Staphylococcus aureus; settings: 50% serum
From the text: as §22, §5, §11, §12, §16, §17, §18, §21

[22] = test system: E. faecium ATCC 51559 MDR, VRE; assay: as above; type: cell-based, Enterococcus faecium; settings: 10% serum
From the text: as §22, §5, §11, §12, §16, §17, §18, §21

CC(C)C([O][Pt][Cl])/C1=C/CC/C=C\CC1 (centres unmarked) [Pt8]
MIC Sa ([1]; CO‐ADD screening): >20 µM
MIC ([1]; Table S1 panel, n=2): 3.12 µM
MIC Ab [2]: >20 µM
MIC Ec [3]: >20 µM
MIC Pa [4]: >20 µM
MIC Kp [5]: >20 µM
MIC Ca [6]: 10 µM
MIC Cn [7]: 1.25 µM
CC50 [8]: > 100 µM
Haemolysis HC10 (human red blood cells; concentration inducing 10 % haemolysis): >100 µM
Haemolysis HC50 (human red blood cells; concentration inducing 50 % haemolysis): >100 µM
MIC [9]: 25 µM
MIC [10]: 12.5 µM
MIC [11]: 50 µM
MIC [12]: 100 µM
MIC [13]: 100 µM
MIC [14]: 50 µM
MIC [15]: 100 µM
MIC [16]: 50 µM
MIC [17]: 6.25 µM
MIC [18]: 25 µM
MIC E. coli lpxC [19]: > 200 µM
MIC in the presence of human serum [20]: 200 µM
MIC in the presence of human serum [21]: > 200 µM
MIC in the presence of human serum (S. aureus NRS 17 GISA): > 200 µM
MIC in the presence of human serum [22]: > 200 µM
